Results reported in US9265253B2, “Use of macrocyclic picolinamides as fungicides” (DOW AGROSCIENCES LLC, priority 2013, dated 2016).
Where two headings read alike, the source gives them in different places.

What was measured:
Phakopsora pachyrhizi = assay: Asian Soybean Rust (PHAKPA) disease control; assay type: in vivo; settings: Phakopsora pachyrhizi, topical
Method in brief: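 Compounds in acetone diluted with nine volumes water containing 0.011% Tween 20, sprayed to run-off on two-week-old Williams 82 soybean seedlings, inoculated 3 days before or 1 day after treatment. Plants held 24 h in dark dew room at 22 °C, 100% RH, then at 23 °C; disease severity scored on sprayed leaves.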

Uncinula necator = assay: Grape Powdery Mildew (UNCINE) disease control; assay type: in vivo; settings: Erysiphe necator, topical, 24 h, 1 Day Protectant, read-out: Disease Control UNCINE 1 DP
Description: Technical grades of materials were dissolved in acetone, which were then mixed with nine volumes of water containing 110 ppm Triton X-100. The fungicide solutions were applied onto wheat seedlings using an automated booth sprayer to run-off. All sprayed plants were allowed to air dry prior to further handling. All fungicides were evaluated using the aforementioned method for their activity vs. all target diseases. Wheat leaf blotch and brown rust activity were also evaluated using track spray applications, in which case the fungicides were formulated as EC formulations, containing 0.1% Trycol 5941 in the spray solutions. Wheat plants (variety Yuma) were grown from seed in a greenhouse in 50% mineral soil/50% soil-less Metro mix until the first leaf was fully emerged, with 7-10 seedlings per pot. These plants were inoculated with an aqueous spore suspension of Septoria tritici either prior to or after fungicide treatments. After inoculation the plants were kept in 100% relative humidity (one day in a dark dew chamber followed by two to three days in a lighted dew chamber at 20° C.) to permit spores to germinate and infect the leaf. The plants were then transferred to a greenhouse set at 20° C. for disease to develop. When disease symptoms were fully expressed on the 1st leaves of untreated plants, infection levels were assessed on a scale of 0 to 100 percent disease severity. Percent disease control was calculated using the ratio of disease severity on treated plants relative to untreated plants. Grape seedlings (variety Carignane) were grown in soil-less Metro mix, with one plant per pot, and used in the test when approximately one month old. Plants were inoculated 24 hr after fungicide treatment by shaking spores from infected leaves over test plants. Plants were maintained in a greenhouse set at 20° C. until disease was fully developed. Fungicide formulation, application and disease assessment on the sprayed leaves followed the procedures as described in the Example A.

Cercospora beticola = assay: Leaf Spot of Sugar Beets (CERCBE) disease control; assay type: in vivo; settings: Cercospora beticola, topical, 24 h, 1 Day Protectant, sugar beet, read-out: Disease Control CERCBE 1 DP
Description: Technical grades of materials were dissolved in acetone, which were then mixed with nine volumes of water containing 110 ppm Triton X-100. The fungicide solutions were applied onto wheat seedlings using an automated booth sprayer to run-off. All sprayed plants were allowed to air dry prior to further handling. All fungicides were evaluated using the aforementioned method for their activity vs. all target diseases. Wheat leaf blotch and brown rust activity were also evaluated using track spray applications, in which case the fungicides were formulated as EC formulations, containing 0.1% Trycol 5941 in the spray solutions. Wheat plants (variety Yuma) were grown from seed in a greenhouse in 50% mineral soil/50% soil-less Metro mix until the first leaf was fully emerged, with 7-10 seedlings per pot. These plants were inoculated with an aqueous spore suspension of Septoria tritici either prior to or after fungicide treatments. After inoculation the plants were kept in 100% relative humidity (one day in a dark dew chamber followed by two to three days in a lighted dew chamber at 20° C.) to permit spores to germinate and infect the leaf. The plants were then transferred to a greenhouse set at 20° C. for disease to develop. When disease symptoms were fully expressed on the 1st leaves of untreated plants, infection levels were assessed on a scale of 0 to 100 percent disease severity. Percent disease control was calculated using the ratio of disease severity on treated plants relative to untreated plants. Sugar beet plants (variety HH88) were grown in soil-less Metro mix and trimmed regularly to maintain a uniform plant size prior to test. Plants were inoculated with a spore suspension 24 hr after fungicide treatments. Inoculated plants were kept in a dew chamber at 22° C. for 48 hr then incubated in a greenhouse set at 24° C. under a clear plastic hood with bottom ventilation until disease symptoms were fully expressed. Fungicide formulation, application and disease assessment on the sprayed leaves followed the procedures as described in the Example A.

[1] = system: Glomerella lagenarium; Anamorph: Colletotrichum lagenarium; assay: Cucumber Anthracnose (COLLLA) disease control; assay type: in vivo; settings: Colletotrichum orbiculare, topical, 24 h, 1 Day Protectant, read-out: Disease Control COLLLA 1 DP
Description: Technical grades of materials were dissolved in acetone, which were then mixed with nine volumes of water containing 110 ppm Triton X-100. The fungicide solutions were applied onto wheat seedlings using an automated booth sprayer to run-off. All sprayed plants were allowed to air dry prior to further handling. All fungicides were evaluated using the aforementioned method for their activity vs. all target diseases. Wheat leaf blotch and brown rust activity were also evaluated using track spray applications, in which case the fungicides were formulated as EC formulations, containing 0.1% Trycol 5941 in the spray solutions. Wheat plants (variety Yuma) were grown from seed in a greenhouse in 50% mineral soil/50% soil-less Metro mix until the first leaf was fully emerged, with 7-10 seedlings per pot. These plants were inoculated with an aqueous spore suspension of Septoria tritici either prior to or after fungicide treatments. After inoculation the plants were kept in 100% relative humidity (one day in a dark dew chamber followed by two to three days in a lighted dew chamber at 20° C.) to permit spores to germinate and infect the leaf. The plants were then transferred to a greenhouse set at 20° C. for disease to develop. When disease symptoms were fully expressed on the 1st leaves of untreated plants, infection levels were assessed on a scale of 0 to 100 percent disease severity. Percent disease control was calculated using the ratio of disease severity on treated plants relative to untreated plants. Cucumber seedlings (variety Bush Pickle) were propagated in soil-less Metro mix, with each pot having one plant, and used in the test when 12 to 14 days old. Test plants were inoculated with an aqueous spore suspension of Colletotrichum lagenarium 24 hr after fungicide treatments. After inoculation the plants were kept in a dew room at 22° C. with 100% relative humidity for 48 hr to permit spores to germinate and infect the leaf. The plants were then transferred to a growth room set at 22° C. for disease to develop. Fungicide formulation, application and disease assessment on the sprayed leaves followed the procedures as described in the Example A.

[2] = system: Magnaporthe grisea; Anamorph: Pyricularia oryzae; assay: whole plant or invertebrate; assay type: in vivo; settings: Pyricularia oryzae, topical, 24 h, read-out: Disease Control PYRIOR 1 DP
[3] = 24 h, 1 Day Protectant, read-out: Disease Control PHAKPA 1DP
[4] = 72 h, 3 Day Curative, read-out: Disease Control PHAKPA 3DC

Structure (SMILES) | melting point [°C] | pest or weed control at 25 ppm (Phakopsora pachyrhizi; [3]) [%] | pest or weed control at 100 ppm (Uncinula necator) [%] | pest or weed control at 100 ppm (Cercospora beticola) [%] | pest or weed control at 100 ppm [1] [%] | pest or weed control at 100 ppm [2] [%] | pest or weed control at 25 ppm (Phakopsora pachyrhizi; [4]) [%]
COc1ccnc(C(=O)N[C@H]2CCC[C@H](Cc3ccc(F)cc3F)[C@@H](OC(=O)c3ccco3)[C@H](C)OC2=O)c1OCOC(C)=O [Compound F144] | 76 to 80 | 0 to 80 | 0 to 80 | 0 to 80 | 80 to 100 |  | 
COc1ccnc(C(=O)N[C@H]2CCC[C@H](Cc3ccc(F)cc3F)[C@@H](OC(=O)c3ccco3)[C@H](C)OC2=O)c1OCOC(=O)C(C)C [Compound F157] | 68 to 72 | 0 to 80 | 80 to 100 | 80 to 100 | 80 to 100 |  | 
CCOCC(=O)OCOc1c(OC)ccnc1C(=O)N[C@H]1CCC[C@H](Cc2ccc(F)cc2F)[C@@H](OC(=O)c2ccco2)[C@H](C)OC1=O [Compound F193] | 70 to 75 | 0 to 80 | 0 to 80 | 80 to 100 | 80 to 100 | 80 to 100 | 0 to 80
COc1ccnc(C(=O)N[C@H]2CCC[C@H](Cc3ccc(F)cc3F)[C@@H](OCC(C)C)[C@H](C)OC2=O)c1OCOC(C)=O [Compound F145] | 48 to 53 | 80 to 100 | 80 to 100 | 80 to 100 | 80 to 100 |  | 0 to 80
COc1ccnc(C(=O)N[C@H]2CCC[C@H](Cc3ccccc3)[C@@H](OCC(C)C)[C@H](C)OC2=O)c1OCOC(=O)C(C)C [Compound F151] | 122 to 124 | 80 to 100 |  | 80 to 100 | 80 to 100 | 80 to 100 | 80 to 100
CCCO[C@@H]1[C@@H](CCC(C)C)CCC[C@H](NC(=O)c2nccc(OC)c2OCOC(C)=O)C(=O)O[C@H]1C [Compound F92] |  | 80 to 100 | 80 to 100 | 80 to 100 | 80 to 100 | 80 to 100 | 80 to 100
C=C[C@H]1CCC[C@H](NC(=O)c2nccc(OC)c2OCOC(C)=O)C(=O)O[C@@H](C)[C@@H]1Oc1ccccc1 [Compound F146] |  | 80 to 100 | 80 to 100 | 80 to 100 | 80 to 100 | 80 to 100 | 80 to 100
COc1ccnc(C(=O)N[C@H]2CCC[C@H](CC(F)F)[C@@H](Oc3ccccc3)[C@H](C)OC2=O)c1OC(C)=O [Compound F82] |  | 80 to 100 | 0 to 80 | 80 to 100 | 80 to 100 | 80 to 100 | 80 to 100
CCCO[C@@H]1[C@@H](Cc2ccc(F)cc2)CCC[C@H](NC(=O)c2nccc(OC)c2OCOC(=O)COCC)C(=O)O[C@H]1C [Compound F167] |  | 80 to 100 | 80 to 100 | 80 to 100 | 80 to 100 | 80 to 100 | 0 to 80
COc1ccnc(C(=O)N[C@H]2CCC[C@H](Cc3ccccc3)[C@@H](OCC3CC3)[C@H](C)OC2=O)c1OCOC(=O)C(C)C [Compound F152] |  | 80 to 100 | 0 to 80 | 80 to 100 | 80 to 100 | 80 to 100 | 80 to 100
CCOCC(=O)OCOc1c(OC)ccnc1C(=O)N[C@H]1CCC[C@H](CCOC)[C@@H](Oc2ccccc2)[C@H](C)OC1=O [Compound F183] |  | 80 to 100 | 80 to 100 | 0 to 80 | 80 to 100 | 80 to 100 | 80 to 100
COc1ccnc(C(=O)N[C@H]2CCC[C@H](Cc3ccc(F)cc3)[C@@H](OCC3CC3)[C@H](C)OC2=O)c1OC(C)=O [Compound F67] |  | 80 to 100 | 0 to 80 | 80 to 100 | 80 to 100 | 80 to 100 | 0 to 80
COCC[C@H]1CCC[C@H](NC(=O)c2nccc(OC)c2OC(C)=O)C(=O)O[C@@H](C)[C@@H]1Oc1ccccc1 [Compound F78] |  | 80 to 100 | 0 to 80 | 80 to 100 | 80 to 100 | 80 to 100 | 80 to 100
COc1ccnc(C(=O)N[C@H]2CCC[C@H](CC(F)F)[C@@H](Oc3ccccc3)[C@H](C)OC2=O)c1OCOC(C)=O [Compound F138] |  | 80 to 100 | 0 to 80 | 80 to 100 | 80 to 100 | 80 to 100 | 80 to 100
